Experimental findings from the supplement of paper PMC4862054 are described below.

The test system of test [1] is CAL-51. Particulars: 72 h. How it is done: (§1)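 Drug sensitivity and resistance testing (DSRT) of breast cancer cell lines in 384-well plates, 5 concentrations in 10-fold dilutions over a compound-specific 10,000-fold range. After 72 h, cytotoxicity was read by CellTox Green fluorescence and viability by CellTiter-Glo luminescence (multiplexed), normalised to DMSO and benzethonium chloride controls. EC50 is the inflection point of the fitted dose-response curve (bottom asymptote free, so it can be relative for partial curves) and is censored at the highest tested concentration. Rows with DSS 0 (no meaningful response) were excluded.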

Test [2] deals with MDA-MB-231. Conditions: 72 h. How it is done: as §1
Test [3] has as its system CAL-148. Nature of the test: normalised viability (% of control), CellTiter-Blue; higher = more viable cells (about 100 = DMSO control). Particulars: incubation time: 72 h. The gist of the method:
(§2)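 Vehicle (100) and a positive kill control (0) anchored the normalisation of each plate, and Z'-factor was used for quality control. Breast cancer cell lines in 20 µl suspension were incubated 72 h over compound in 5 µl medium in 384-well plates, followed by CellTiter-Blue at 560/590 nm. The value is normalised viability at a single listed concentration of the series.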

Test [4] concerns DU-4475. Described as above. Particulars: incubation time: 72 h. The procedure, abridged: as §2
Test [5] deals with HDQ-P1. The description is as above. Conditions: incubation time: 72 h. The procedure, abridged: as §2
Test [6] relates to BT-474. Nature of the test: normalised response (% of control), CellTiter-Glo; higher = more viable cells (100 = DMSO, 0 = benzethonium chloride kill control). Particulars: incubation time: 72 h. The procedure, abridged:
(§3)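 Values are normalised signals, each belonging to one concentration of the series. Breast cancer cells (20 µl suspension) were seeded into 384-well plates with compound at 5 concentrations in 10-fold steps over a compound-specific 10,000-fold range and incubated 72 h. Readouts were CellTox Green fluorescence (485/520 nm), then CellTiter-Glo luminescence after 10 min at room temperature, with each plate set to 0.1 % DMSO as 100 and a positive kill control as 0.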
(Cellular ATP, detected with luciferase, serves as a proxy for viable cell number.)

Test [7] relates to BT-549. The description is as above. Conditions: incubation time: 72 h. The procedure, abridged:
as §3

Test [8] concerns CAL-120. The description is as above. Particulars: incubation time: 72 h. The gist of the method:
as §3

Test [9] concerns CAL-148. The test is described as above. Particulars: incubation time: 72 h. The gist of the method: as §3
In test [10] the test system is CAL-51. The description is as above. Conditions: incubation time: 72 h. The procedure, abridged:
as §3

In test [11] the test system is CAL-85-1. The test is described as above. Conditions: incubation time: 72 h. The procedure, abridged: as §3
Test [12] has as its system DU-4475. The description is as above. Conditions: incubation time: 72 h. The gist of the method:
as §3

The test system of test [13] is HCC1143. The description is as above. Conditions: incubation time: 72 h. The gist of the method:
as §3

For test [14], the system named is HCC1599. The description is as above. Particulars: incubation time: 72 h. The procedure, abridged: as §3
For test [15], the system named is HCC1937. The description is as above. Conditions: incubation time: 72 h. The gist of the method: as §3
For test [16], the system named is HDQ-P1. The description is as above. Conditions: incubation time: 72 h. The gist of the method: as §3
For test [17], the system named is Hs578T. The description is as above. Conditions: incubation time: 72 h. The gist of the method: as §3
In test [18] the test system is MCF-10A. Described as above. Conditions: incubation time: 72 h. The procedure, abridged:
as §3

For test [19], the system named is MDA-MB-231. Described as above. Particulars: incubation time: 72 h. The gist of the method:
as §3

Test [20] deals with MDA-MB-436. The description is as above. Particulars: incubation time: 72 h. The procedure, abridged:
as §3

The subject of test [21] is MDA-MB-453. The description is as above. Conditions: incubation time: 72 h. The procedure, abridged:
as §3

Test [22] relates to MDA-MB-468. Described as above. Conditions: incubation time: 72 h. The procedure, abridged: as §3
Test [23] deals with MFM-223. Described as above. Conditions: incubation time: 72 h. The gist of the method:
as §3

Test [24] relates to SK-BR-3. The test is described as above. Conditions: incubation time: 72 h. The procedure, abridged:
as §3

Several values for one entry are separate records, joined by “and”; a condition that tells them apart may be missing. Equal entries are not always repeated.

As to `O=C(Nc1ccncc1)C(=O)c1cn(Cc2ccc(Cl)cc2)c2ccccc12` [Indibulin], the entries for the “EC50, CellTox Green” value in test [1] and in test [2] were 860 nM and 472 nM, respectively.

Turning to `COc1cc(OC2CCN(C)CC2)ccc1Nc1ncc2c(n1)n(C1CCCC1)c(=O)n2C` [AZ 3146], the “EC50, CellTox Green” value in test [1] was found to be 768 nM.

On to `CCc1c2c(nc3ccc(OC(=O)N4CCC(N5CCCCC5)CC4)cc13)-c1cc3c(c(=O)n1C2)COC(=O)[C@]3(O)CC` [Irinotecan], for which the “EC50, CellTox Green” value in test [1] is 1220 nM.

Regarding `O=C(Nc1cccnc1)N1CCC(Cc2cccc(Oc3ccc(C(F)(F)F)cn3)c2)CC1` [PF-3845] (10000 nM), the normalised viability in test [3] is 98.2%; in test [4], 108%; in test [5], 128%. The normalised response in test [6] is 93.3%; in test [7], 71.7%; in [8] it was 86%; in [9] it was 88.4%; in [10], 44.6%; in test [11], 89.7%. Besides, the normalised response was 85% in [12]; 86.1% in test [13]; 46.2% in [14]; 75.3% in test [15]; 95.2% in test [16]; 92.1% in test [17]. In addition, the normalised response in test [18] was 93.4%; in test [19], 89.1%; in test [20], 72.6%; in test [21], 74.7%; in [22], 49.1%; in test [23] it was 75.7%. For the same molecule, the normalised response in [24] was found to be 57.1%.

With `COc1cc(OC2CCN(C)CC2)ccc1Nc1ncc2c(n1)n(C1CCCC1)c(=O)n2C` [AZ 3146] (10000 nM), the normalised viability in test [3] was found to be 48.4%; in test [4], 54.6%; in [5], 80.1%. The normalised response in test [6] was 59.9%; in test [7], 64.3%; in [8] it was 81%; in [9], 58.7%; in test [10], 48.9%; in [11], 51.7%. Also, the normalised response in test [12] amounted to 79.1%; in [13] it was 70.4%; in test [14] it was 37.8%; in [15] it was 70.3%; in test [16], 70.6%; in test [17] it was 63%. In addition, the normalised response stood at 47.8% in [18]; 62.3% in [19]; 79.3% in test [20]; 95.7% in test [21]; 28.6% in test [22]; 72.1% in [23]. Moreover, the normalised response in [24] stood at 52.4%.

Take `O=C(/C=C/c1cccc(S(=O)(=O)Nc2ccccc2)c1)NO` [Belinostat] (10000 nM): the normalised viability in [3] came to 0.35%; in test [4], 4.25%; in test [5] it was 23%. Further, the normalised response is 5.7% in test [6]; 17.8% in test [7]; 7.76% in [8]; -0.03% in [9]; 44.5% in test [10]; 6.45% in [11]. The normalised response in [12] came out at 5.73%; in test [13], 12.4%; in [14] it was 5.36%; in test [15] it was 20.5%; in [16], 30.4%; in [17] it was 7.71%. Further, the normalised response in test [18] was 16.1%; in test [19] it was 2.16%; in test [20] it was 29.3%; in [21], 2.73%; in test [22], 8.88%; in test [23], 26.1%. In addition, the normalised response in [24] came out at 0%.

As to `Cc1cc(Nc2cc(CN3CCOCC3)c3nc(C)c(Cc4ccc(Cl)cc4F)n3n2)n[nH]1` [Gandotinib], in [1], the “EC50, CellTox Green” value was 1390 nM.

On to `COCC1(CO)C(=O)C2CCN1CC2` (configuration not stated) [Prima-1 Met] (10000 nM), for which the normalised viability was determined as 80.7% in [3], 125% in test [4] and 103% in [5]. Moreover, the normalised response in test [6] amounted to 97.1%; in test [7], 53.3%; in test [8] it was 100%; in [9], 110%; in test [10] it was 130%; in test [11] it was 102%. Besides, the normalised response in test [12] came out at 106%; in test [13], 98%; in test [14] it was 108%; in test [15] it was 101%; in test [16] it was 96.7%; in test [17], 97.4%. In addition, the normalised response in test [18] was determined as 106%; in [19], 97.6%; in test [20] it was 97.7%; in test [21], 93.1%; in [22], 91.3%; in test [23], 103%. For the same molecule, the normalised response in [24] was 106%.

Consider `COc1cc2ncnc(Nc3ccc(F)c(Cl)c3)c2cc1OCCCN1CCOCC1` [Gefitinib] (10000 nM), for which the normalised viability is 69.2% and 65% in test [3]; 102% and 105% in test [4]; 59.6% and 51.1% in test [5]. For the same molecule, the normalised response was 69.8% in test [6]; 73.6% in test [7]; 83.6% in [8]; 69.7% in [9]; 100% in test [10]; 34.7% in test [11]. Also, the normalised response was found to be 104% in test [12]; 77% in test [13]; 81.9% in test [14]; 60.9% in test [15]; 56% in [16]; 97% in test [17]. Besides, the normalised response in test [18] came out at 26.1%; in test [19] it was 70.5%; in test [20], 74.1%; in test [21], 60.3%; in test [22], 38.1%; in [23], 75%. Moreover, in test [24], the normalised response is 27.1%.

`COCC[n+]1c2c(n(Cc3cnccn3)c1C)C(=O)c1ccccc1C2=O` [YM155] (10000 nM): the normalised viability in [3] worked out at 2.13%; in test [4] it was 0.83%; in [5], 0.66%. In addition, the normalised response was 1.71% in test [6]; -0.36% in test [7]; -0.38% in [8]; -0.38% in [9]; -0.12% in test [10]; -0.28% in test [11]. In addition, the normalised response is -0.36% in test [12]; -0.39% in [13]; -0.77% in test [14]; 0.28% in test [15]; 1.64% in test [16]; -0.62% in test [17]. Also, the normalised response in test [18] is -0.72%; in test [19], -0.19%; in [20], -0.62%; in test [21], -0.58%; in test [22], -0.19%; in [23], 5.6%. In addition, in test [24], the normalised response is -0.43%.
